From US12102638B2 (Urovant Sciences GmbH, priority 2017, dated 2024) come the findings set out here.

Series [1] relates to men and women with OAB. The experiment in a line: Phase 2b study in OAB, efficacy (voiding diary). The format is in vivo, human. Particulars: tolterodine ER 4 mg once daily. The source says: Part 2 was designed to continue to assess the safety and efficacy of concomitant dosing. […] Subjects in both Part 1 and Part 2 had the option of enrolling in a 1-year extension. Participants were required to keep a voiding diary, recording the occurrence of each strong urge, total incontinence, and urge incontinence episode. Efficacy data for Part 1 and Part 2 are summarized herein.
The total number of urgency incontinence episodes must have exceeded the total number of stress incontinence episodes for all subjects.

Series [2] relates to patients with overactive bladder. The source says:
A placebo group was included in the main study, and a group that received tolterodine monotherapy was included in the main study and in the extension.

Series [3] has the same test system. The experiment in a line: Phase 2b 52-week extension safety. The format is in vivo, human. The note with it: tolterodine ER 4 mg. From the text: There were no deaths reported during the study.
For series [4], the system named is patients with OAB. The experiment in a line: Phase 2b vital sign changes (HR, SBP, DBP). Particulars: Tolterodine 4 mg. The format is in vivo, human. From the text:
None led to discontinuation. The overall incidence of orthostatic symptoms was low.
Small differences in the percent of subjects exceeding categorical heart rate and blood pressure thresholds for vibegron were similar to those in the tolterodine arm.

A short description of series [5]: mass balance study with [14C]vibegron in healthy subjects. The note with it: human plasma at 2 and 4 hr.
The test system of series [6] is healthy subjects. The experiment in a line: thorough QT single oral dose study. In kind it is in vivo, human. Particulars: single dose of moxifloxacin 400 mg.
The mark [7] stands for this setting: Tolterodine ER 4 mg, N = 257, first 12 weeks.

Turning to `Cc1ccc(O)c([C@H](CCN(C(C)C)C(C)C)c2ccccc2)c1` [Tolterodine ER, tolterodine], in series [1] (OAB Wet subjects), the “Total Incontinence Episodes, change from baseline Week 8, mean” value is −1.80; the “Total Incontinence Episodes, daily number, Week 8 mean” value is on record as 1.32; the “Total Incontinence Episodes, difference from placebo Week 8, LS means” value was −0.34; the “Urgency Incontinence Episodes, change from baseline Week 8, mean” value is recorded as −1.67. For the same compound, in series [1] (OAB Wet subjects), the “Urgency Incontinence Episodes, daily number, Week 8 mean” value came to 1.15 and the “Urgency Incontinence Episodes, difference from placebo Week 8, LS means” value is −0.46. In addition, in series [1] (Part 1), the “Micturitions, change from baseline Week 8, mean” value was −1.73; the “Micturitions, daily number, Week 8 mean” value was 9.24; the “Micturitions, difference from placebo Week 8, LS means” value is reported as −0.54; the “Urgency Episodes, change from baseline Week 8, mean” value is −2.52. For the same compound, in series [1] (Part 1), the “Urgency Episodes, daily number, Week 8 mean” value is listed as 3.91 and the “Urgency Episodes, difference from placebo Week 8, LS means” value is −0.94. For the same compound, the “change from baseline in volume voided per micturition, difference from placebo in LS means” value in series [1] (Week 8) worked out at 30.77 mL. Besides, the frequency of injuries in series [2] (Phase 2 program) turned out to be 2.1%. In series [2] (setting [7]), the “Accidental overdose, %” value is “(2.3) %”; the “Alanine aminotransferase increased, %” value is “(0.4) %”; the “Arthralgia, %” value is on record as “(1.2) %”; the “Aspartate aminotransferase increased, %” value is listed as “(0.0) %”. Also, in series [2] (setting [7]), the “Constipation, %” value is recorded as “(1.9) %”; the “Diarrhea, %” value is recorded as “(3.5) %”; the “Discontinuation due to AE, %” value is “(1.6) %”; the “Dizziness, %” value is given as “(1.9) %”. Besides, in series [2] (setting [7]), the “Drug-related AE, %” value was “(16.3) %”; the “Dry eye, %” value was “(3.9) %”; the “Dry mouth, %” value is “(8.6) %”; the “Dysuria, %” value was “(1.2) %”. In addition, in series [2] (setting [7]), the “Fatigue, %” value was “(2.3) %”; the “Headache, %” value is “(3.5) %”; the “Nasopharyngitis, %” value is “(1.6) %”; the “Nausea, %” value is on record as “(2.3) %”. In series [2] (setting [7]), the “Osteoarthritis, %” value is given as “(0.0) %”; the “Pain in extremity, %” value was “(0.4) %”; the “Serious AE, %” value is on record as “(1.2) %”; the “Sinusitis, %” value is given as “(0.4) %”. In addition, in series [2] (setting [7]), the “Urinary tract infection, %” value is “(4.7) %” and the “≥1 AE, %” value is “(45.1) %”. The “incidence of dry mouth compared to placebo or vibegron monotherapy groups” value in series [2] (groups that received tolterodine (alone or with vibegron), main study) is reported as “higher”. This compound displayed an SAEs reported in series [2] (tolterodine 4 mg, main study) of 3. Besides, in series [3], the “drug-related SAE” value is given as “one drug-related SAE of ileus paralytic” and the “incidence of dry mouth compared to the other treatment groups” value is reported as “higher”. Also, in series [4], the “DBP change from baseline, mean (95% CI) Max, week 1 to 8” value was 5.19 (4.26, 6.13) mm Hg; the “DBP change from baseline, mean (95% CI), week 1” value is −0.12 (−1.10, 0.86) mm Hg; the “HR change from baseline, mean (95% CI) maximum, week 1 to 8” value is reported as 5.66 (4.69, 6.63) bpm; the “HR change from baseline, mean (95% CI), week 1” value is 0.68 (−0.31, 1.67) bpm. In addition, in series [4], the “SBP change from baseline, mean (95% CI) maximum, week 1 to 8” value is on record as 7.29 (6.01, 8.57) mm Hg and the “SBP change from baseline, mean (95% CI), week 1” value is listed as 0.04 (−1.36, 1.43) mm Hg.
Turning to `O=C(O)C1OC(OC(c2ccccc2)C2CCC(Cc3ccc(NC(=O)C4CCc5nccc(=O)n54)cc3)N2)C(O)C(O)C1O` (stereo not drawn) [M7], in series [5], the “share of total circulating drug-related material” value is 12-14%.
Turning to `COc1c(N2C[C@@H]3CCCN[C@@H]3C2)c(F)cc2c(=O)c(C(=O)O)cn(C3CC3)c12` [moxifloxacin, reference compound], in series [6], the “effect on QTcF” value is “statistically significant effect”.
